Structures can show the parent of a compound that is named as a salt. Where two headings read alike, the source gives them in different places.
Key:
[1] = biological target: T1, recombinant guanylate cyclase reporter cell line (Rattus norvegicus, UniProt P19686+P20595); assay: Effect on a recombinant guanylate cyclase reporter cell line; type: cell-based
T1 construct: expressed in transfected cells; host or cells: recombinant reporter cell line
T1 sequence (P20595 1-619): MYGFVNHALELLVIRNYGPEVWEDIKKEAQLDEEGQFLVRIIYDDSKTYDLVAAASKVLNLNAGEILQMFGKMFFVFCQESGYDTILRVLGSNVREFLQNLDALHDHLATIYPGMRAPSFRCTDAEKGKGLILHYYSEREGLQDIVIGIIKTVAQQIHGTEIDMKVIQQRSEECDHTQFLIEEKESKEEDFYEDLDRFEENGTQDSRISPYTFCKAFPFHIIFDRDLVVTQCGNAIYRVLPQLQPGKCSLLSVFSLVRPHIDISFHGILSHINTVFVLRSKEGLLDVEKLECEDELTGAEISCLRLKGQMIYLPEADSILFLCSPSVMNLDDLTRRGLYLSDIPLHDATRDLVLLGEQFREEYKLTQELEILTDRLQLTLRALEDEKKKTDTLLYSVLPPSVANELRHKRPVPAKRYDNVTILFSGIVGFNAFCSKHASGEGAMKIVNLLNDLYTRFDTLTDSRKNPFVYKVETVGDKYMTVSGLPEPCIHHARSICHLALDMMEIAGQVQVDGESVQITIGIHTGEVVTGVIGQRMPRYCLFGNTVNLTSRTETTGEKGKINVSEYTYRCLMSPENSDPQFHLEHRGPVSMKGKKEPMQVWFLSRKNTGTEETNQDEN
T1 sequence (P19686 1-690): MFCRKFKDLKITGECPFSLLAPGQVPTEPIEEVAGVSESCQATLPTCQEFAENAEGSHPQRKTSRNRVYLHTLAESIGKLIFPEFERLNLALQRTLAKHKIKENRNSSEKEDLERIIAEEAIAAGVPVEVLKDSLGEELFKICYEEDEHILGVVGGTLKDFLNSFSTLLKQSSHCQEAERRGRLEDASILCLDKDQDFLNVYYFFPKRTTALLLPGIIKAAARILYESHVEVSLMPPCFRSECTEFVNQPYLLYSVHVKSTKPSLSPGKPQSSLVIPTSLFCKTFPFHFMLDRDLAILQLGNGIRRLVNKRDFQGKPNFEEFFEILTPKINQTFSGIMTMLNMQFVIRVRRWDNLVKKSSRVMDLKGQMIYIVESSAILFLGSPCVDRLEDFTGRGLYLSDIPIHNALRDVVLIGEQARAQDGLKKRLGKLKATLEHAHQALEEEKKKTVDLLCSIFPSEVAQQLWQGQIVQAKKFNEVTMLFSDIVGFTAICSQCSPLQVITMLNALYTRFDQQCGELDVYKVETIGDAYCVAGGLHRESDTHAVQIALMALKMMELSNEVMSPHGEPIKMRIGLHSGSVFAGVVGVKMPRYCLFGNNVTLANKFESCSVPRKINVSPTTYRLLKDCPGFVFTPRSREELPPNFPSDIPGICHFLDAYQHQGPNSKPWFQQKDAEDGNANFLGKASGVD
Method: The cellular activity of the compounds according to the invention was determined using a recombinant guanylate cyclase reporter cell line, as described in F. Wunder et al., Anal. Biochem. 339, 104-112 (2005).

[2] = Pharmacokinetic parameters following intravenous and oral administration in rats; type: in vivo, male Wistar rats; settings: in rats as well as in dogs
Method: The pharmacokinetic parameters of the compounds according to the invention were determined in male Wistar rats and/or in female beagles and/or in cynomolgus monkeys and/or in male CD-1 mice. Intravenous administration in the case of mice and rats was carried out by means of a species-specific plasma/DMSO formulation, and in the case of dogs and monkeys by means of a water/PEG400/ethanol formulation. In all species, oral administration of the dissolved substance was performed via gavage, based on a water/PEG400/ethanol formulation.
An internal standard (which may also be a chemically unrelated substance) was added to the samples of the compounds of the invention, calibration samples and qualifiers, and there follows protein precipitation by means of acetonitrile in excess. […] The supernatant was analysed by LC-MS/MS using C18 reversed-phase columns and variable mobile phase mixtures. The substances were quantified via the peak heights or areas from extracted ion chromatograms of specific selected ion monitoring experiments.
The plasma concentration/time plots determined were used to calculate the pharmacokinetic parameters such as AUC,Cmax,t½ (terminal half-life), F (bioavailability), MRT (mean residence time) and CL (clearance), by means of a validated pharmacokinetic calculation program. […]

EC50 [1] [µM]	MEC (minimum effective concentration) [1] [nM]	MEC (minimum effective concentration) ([1]; hydrochloride) [nM]	lower plasma clearance (CLplasma) in comparison to example 174 in WO 2012/058132 [2]	Compound
0.04	6.5	–	–	CC(C)CN1CCN(c2ccc(-c3ccc(Cl)cc3N3CCCC(n4ncc(C(=O)O)c4C(F)(F)F)C3)cc2)CC1 (single isomer, unassigned) [Example 1, 1-[1-{4-Chloro-4′-[4-(2-methylpropyl)piperazin-1-yl][1,1′-biphenyl]-2-yl}piperidin-3-yl]-5-(trifluoromethyl)-1H-pyrazole-4-carboxylic acid]
0.011	–	2.2	up to 10 times	CC(C)CN1CCN(c2ccc(-c3ccc(Cl)cc3N3CCCC(n4ncc(C(=O)O)c4C(F)(F)F)C3)cc2)CC1 (single isomer, unassigned) [Example 2, 1-[1-{4-chloro-4′-[4-(2-methylpropyl)piperazin-1-yl][1,1′-biphenyl]-2-yl}piperidin-3-yl]-5-(trifluoromethyl)-1H-pyrazole-4-carboxylic acid hydrochloride]

Reference: patent publication US20240051935A1, “SUBSTITUTED PYRAZOLO PIPERIDINE CARBOXYLIC ACIDS” (BAYER AKTIENGESELLSCHAFT, priority 2020, published 2024)
